PMC13252604, “First Generation Proteolysis Targeting Chimeras (PROTACs) for the Treatment of Progeria” (Advanced Science, 2026)

Assays:
[1] = system: Lmna^G609G/G609G mouse fibroblasts; test: Cellular uptake by fluorescence microscopy; type: cell-based; details: intrinsic fluorescence, 5 μM
Description: Supporting Figure S4. Cellular internalization of compounds 2 and 9. Live progeroid
LmnaG609G/G609G mouse fibroblasts were incubated with 5 μM of indicated compound and
images were taken every 5 minutes in a confocal fluorescence microscopy Olympus lx83
(lexc = 420 nm; lem = 530 nm). Shown image corresponds to 100 min incubation. Scale […]

progerin = biological target: T1, progerin (Mus musculus, UniProt P48678, DEL608-657); test: Cellular thermal shift assay; type: binding
T1 construct: endogenous in cells; host or cells: immortalized (SV40-LT) fibroblasts from Lmna G609G/G609G mice
T1 sequence (P48678 with tags, fused parts or gaps DEL608-657 limits assumed): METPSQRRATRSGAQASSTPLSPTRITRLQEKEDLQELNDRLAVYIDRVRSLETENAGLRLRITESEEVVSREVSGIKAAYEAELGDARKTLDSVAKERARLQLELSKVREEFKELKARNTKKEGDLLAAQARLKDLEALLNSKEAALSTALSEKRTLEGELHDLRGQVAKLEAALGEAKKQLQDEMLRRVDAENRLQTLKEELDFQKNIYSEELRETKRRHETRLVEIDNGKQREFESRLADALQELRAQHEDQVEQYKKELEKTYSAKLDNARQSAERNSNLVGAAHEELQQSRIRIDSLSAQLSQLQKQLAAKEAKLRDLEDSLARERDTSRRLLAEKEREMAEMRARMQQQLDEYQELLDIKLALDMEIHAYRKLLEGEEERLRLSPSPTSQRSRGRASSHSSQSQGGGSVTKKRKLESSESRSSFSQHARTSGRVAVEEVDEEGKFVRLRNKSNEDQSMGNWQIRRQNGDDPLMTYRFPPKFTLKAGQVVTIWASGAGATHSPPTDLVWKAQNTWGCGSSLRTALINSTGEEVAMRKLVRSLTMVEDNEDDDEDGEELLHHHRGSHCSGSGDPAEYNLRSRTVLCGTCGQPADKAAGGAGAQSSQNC
Description: Vehicle .LM123L T-!=>(%C" V,!=> […]
50- !!!!!C#' -4TT8VLamin C -4T:T; (%$$-4-:?5T '()*+
!!!!!E#)*+,- ,V4:-β-Actin ,?4?V ,848; D(%
37- !!!!!*+,- 84;66L<-,V V4-;VL<-,? ?4T-?L<-,8 ,-)*+ […]
Supporting Figure S2. Ternary complex formation, progerin engagement and global selectivity of compound 2. […]
(C) Thermal denaturation curves of progerin in the presence of vehicle (black) or compound 2 at 10 µM (red, DTm=0.7±0.1 °C) or 25 µM (blue, […]
of compound 2 (IC50=7±1 µM). Curves are generated and fitted using sigmoidal dose-response non-linear regression curve fit in GraphPad Prism. Symbols and associated error bars (when not enclosed by the symbol) represent average±SD from two independent experiments carried out in duplicate. […]
(also on this page, place not known: >4000; Cpd2Cpd2 #)"$"C"#"*")*$*C ,V4:- 89:/1239 .0,;902<=:939:>=R?T !"#$#" (%$$ (%C" #)"$"C"#"*")*$*C -45665 -4TT8V ,V4:- 84;66L<-,V T-!=> ,?4?V V4-;VL<-,? -4-:?5T ,848; ?4T-?L<-,8 89:/1239 .0,;902<=:939:>=R?T FFFFFSB#T89: FFFFFSB#T89: FFFFFa+#-++GFB2FC-++CB$ FFFFFbFGF4D-+C FFFFF!4$FB2F!F4D-+G FFFFFiFB2FMF3DE4+G FFFFFiFkF3DE4+GFDLDEdl+C I9em:m rrr 9 :eosmX :e:snst o o Ise::::: I9e::::: :etpoooomX :esnnsmqmX :enst9mmqo :estm9XpoX Lamin β-Actin Progerin Relative progerin levelsin thesoluble fraction Relative levelsof denaturedprogerin [Cpd2, Relative progerin signal intensityvs IgG Cpd2 [Cpd2]=10 [Cpd2]=25 AbundanceRatio Veh Cpd2 -Log10 (p value)) […]
buffer containing 2.5% β-mercaptoethanol, and heated at 95 °C for 5 min prior to magnetic separation and loading of supernatants onto SDS -PAGE gels. Input lysates (~30 µg) were prepared in parallel as Western blot controls.
14. Cellular thermal shift assay.
Progeroid mouse fibroblasts (LmnaG609G/G609G) were seeded (2x10^6 cells) in 100 mm dishes 24 h before the experiment. Next day, cells were first washed with PBS and then incubated with the proteasome inhibitor (S)-MG132 (20 µM) for 2 h at 37 °C and 5%
CO2. Then, the cells were incubated with compound 2 at the corresponding concentration or with vehicle for 60 min at 37 °C and 5% CO2. Cells were then washed with PBS, detached by treatment with trypsin, and collected by centrifugation at 250g and 25 °C for 5 min, washed with PBS and resuspended in PBS in 0.2 mL microtubes. Then, homogenates or cells were transferred to PCR tubes and heat-shocked for 3 min at the appropriate temperature (37 to 61 °C) followed by rapid cooling to 25 °C using a SensoQuest LabCycler Thermocycler (Progen Scientific Ltd). Igepal CA-630 was then added to the samples (final concentration of 1 % v/v), and the samples were thoroughly mixed and denatured by three cycles of freezing/thawing (immersion in liquid nitrogen followed by fast thawing). […]

Compound: CC1(C)Oc2cc3oc(=O)ccc3cc2C[C@@H]1OC(=O)CCCCCNc1cccc2c1C(=O)N(C1CCC(=O)NC1=O)C2=O (some centres unmarked) [compound 2]
- cellular uptake [1]: confirmed
- IC50 (progerin; CETSA, isothermal at 53 °C, Lmna^G609G/G609G fibroblasts, read-out: binding affinity by isothermal dose‐response fingerprint (IC50)): 7 ± 1 µM
- direct binding to progerin by cellular thermal shift assays (progerin; Lmna^G609G/G609G fibroblasts): direct binding between compound 2 and progerin
- ΔTm at 10 µM (progerin; compound at 10 µM, read-out: DTm of progerin (thermal denaturation curve)): 0.7 ± 0.1 °C
- ΔTm at 25 µM (progerin; compound at 25 µM, read-out: DTm of progerin (thermal denaturation curve)): 2 ± 0.3 °C
